Where “and” joins values, the source holds several entries; their conditions need not be identical. Equal entries are not always repeated.
Experiments:
DDR2 = molecular target: T1, DDR2 (Homo sapiens, UniProt Q16832); experiment: KINOMEscan active-site competitive binding assay; conditions: slash = two separate measurements
T1 construct: purchased DiscoveRx (KINOMEscan service)
T1 sequence (Q16832 22-855): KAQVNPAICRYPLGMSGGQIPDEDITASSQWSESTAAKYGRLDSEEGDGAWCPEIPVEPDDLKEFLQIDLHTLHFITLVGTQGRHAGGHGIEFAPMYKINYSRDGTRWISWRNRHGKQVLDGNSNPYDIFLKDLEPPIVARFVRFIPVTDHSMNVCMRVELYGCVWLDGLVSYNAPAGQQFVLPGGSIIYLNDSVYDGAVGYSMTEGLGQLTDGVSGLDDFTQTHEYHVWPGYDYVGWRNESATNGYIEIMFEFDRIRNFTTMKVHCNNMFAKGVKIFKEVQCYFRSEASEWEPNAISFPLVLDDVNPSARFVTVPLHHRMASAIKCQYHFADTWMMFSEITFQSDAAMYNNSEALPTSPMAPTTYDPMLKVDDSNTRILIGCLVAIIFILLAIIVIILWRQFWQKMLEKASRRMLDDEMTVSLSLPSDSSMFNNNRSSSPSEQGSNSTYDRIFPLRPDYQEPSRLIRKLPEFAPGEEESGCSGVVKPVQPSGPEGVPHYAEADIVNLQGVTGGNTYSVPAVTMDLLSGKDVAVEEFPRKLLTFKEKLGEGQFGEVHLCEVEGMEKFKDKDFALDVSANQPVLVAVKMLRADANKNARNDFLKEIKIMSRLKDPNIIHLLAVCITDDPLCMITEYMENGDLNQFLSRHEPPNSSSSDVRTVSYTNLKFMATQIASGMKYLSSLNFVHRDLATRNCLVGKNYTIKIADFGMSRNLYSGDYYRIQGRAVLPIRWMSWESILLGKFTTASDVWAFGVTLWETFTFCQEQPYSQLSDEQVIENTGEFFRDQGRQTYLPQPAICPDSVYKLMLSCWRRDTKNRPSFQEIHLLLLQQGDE

p38-alpha = molecular target: T2, p38-alpha (Homo sapiens, UniProt Q16539); experiment: KINOMEscan active-site competitive binding assay; conditions: slash = two separate measurements
T2 construct: purchased DiscoveRx (KINOMEscan service)

SLK = molecular target: T3, SLK (Homo sapiens, UniProt Q9H2G2); experiment: KINOMEscan active-site competitive binding assay; conditions: slash = two separate measurements
T3 construct: purchased DiscoveRx

BRAF^V600E [1] = molecular target: T4, BRAF^V600E (Homo sapiens, UniProt P15056, V600E); experiment: KINOMEscan active-site competitive binding assay
FLT3^N841I = molecular target: T5, FLT3^N841I (Homo sapiens, UniProt P36888, N841I); experiment: KINOMEscan active-site competitive binding assay
T5 construct: purchased DiscoveRx

KIT^D816V = molecular target: T6, KIT^D816V (Homo sapiens, UniProt P10721, D816V); experiment: KINOMEscan active-site competitive binding assay
T6 construct: purchased DiscoveRx

RET^M918T = molecular target: T7, RET^M918T (Homo sapiens, UniProt P07949, M918T); experiment: KINOMEscan active-site competitive binding assay
T7 construct: purchased DiscoveRx (KINOMEscan service)

PDGFRs = experiment: KINOMEscan active-site competitive binding assay; conditions: range among family members
PDGFRα = molecular target: T8, PDGFRα (Homo sapiens, UniProt P16234); experiment: PDGFRA phosphorylation assay, PathHunter cell line U2OS/PDGFRA; format: cell-based; conditions: U2OS/PDGFRA cells; 0.1% bovine serum albumin; read-out: Mean ± SD IC50
T8 construct: host or cells: PathHunter cell line (U2OS/PDGFRA)
Procedure: VEGFR2 assays were performed in murine fibroblasts (NIH‐3T3) in the presence of 0.1 mg/mL human serum albumin. […] Substrate phosphorylation was determined from total cell lysates by enzyme‐linked immunosorbent assay. In addition, an FGFR phosphorylation assay was performed using a human gastric carcinoma cell line (SNU‐16), with pFGFR assessed by western blot. The PDGFRA phosphorylation assay was performed by DiscoverRx using the DiscoverRx PathHunter cell line, modified to express PDGFRA. […] The assay signal was generated using a detection reagent cocktail and measured by chemoluminescence 13. Both the PDGFRA and FGFR assays were performed in the presence of 0.1 mg/mL BSA.

VEGFR3 = molecular target: T9, VEGFR3 (Homo sapiens, UniProt P35916); experiment: VEGFR3 autophosphorylation in HuLECs stimulated with VEGF‐C (western blot); format: cell-based; conditions: VEGF‐C stimulation, 0.1% bovine serum albumin, estimated from western blots, read-out: Mean ± SD IC50
T9 construct: VEGFR3 autophosphorylation in HuLECs; endogenous in cells; host or cells: HuLEC
Procedure: Endothelial cell assays were performed as described previously 14. In brief, HuVECs and HuLECs were grown in EBM‐2 supplemented with growth factors (Lonza, Walkersville, MD). After serum starvation for 6 h in EBM‐2 containing 0.1% BSA, 2 × 10^5 cells were treated with various concentrations of each compound for 1 h before stimulation with VEGF‐A (50 ng/mL) or VEGF‐C (200 ng/mL) for 10 min. Cells were lysed, and total cell lysates were analyzed for inhibition of phosphorylation by western blot, using antibodies against total and phosphorylated VEGFR2 and VEGFR3, ERK1/2, and AKT. Signals were detected by […] luminescence (GE Healthcare Biosciences; Pittsburgh, PA).

VEGFR2 = VEGFR2 (Homo sapiens, UniProt P35968); experiment: VEGFR2 kinase phosphorylation assay in NIH‐3T3 cells; format: cell-based; conditions: 0.1 mg/mL human serum albumin, data not shown
Procedure: TIE‐2, wt KIT, and BRAF^V600E assays were performed by ProQinase (Freiburg, Germany). Cell lines used were Chinese hamster ovary (TIE‐2 assay), human acute megakaryoblastic leukemia cell line (M07e; wt KIT assay), and rat fibroblasts (RAT‐1; BRAF^V600E assay). VEGFR2 assays were performed in murine fibroblasts (NIH‐3T3) in the presence of 0.1 mg/mL human serum albumin. KIT^K642E assays were performed in a GIST cell line (GIST882) in the presence of 0.1 mg/mL BSA. Substrate phosphorylation was determined from total cell lysates by enzyme‐linked immunosorbent assay. In addition, an FGFR phosphorylation assay was performed using a human gastric carcinoma cell line (SNU‐16), with pFGFR assessed by western blot. The PDGFRA phosphorylation assay was performed by DiscoverRx using the DiscoverRx PathHunter cell line, modified to express PDGFRA. […] The assay signal was generated using a detection reagent cocktail and measured by chemoluminescence 13. Both the PDGFRA and FGFR assays were performed in the presence of 0.1 mg/mL BSA.

[2] = Plasma protein binding in vitro (Transil), human plasma; format: in vitro ADME; conditions: for Proportion of protein‐bound drug / Unbound fraction, fold lower than that of regorafenib / Major plasma protein to which the compound was bound: human plasma; for Major plasma protein to which the compound was bound: data not shown; for Unbound fraction, fold lower in human than in murine plasma: human versus murine plasma
Procedure: A radioactivity analysis was performed by liquid scintillation counting. […] All compounds were tested for stability at the incubation conditions used.

[3] = tested on: lung tumor cell lines expressing wt or mutant DDR2; experiment: Preliminary in vitro proliferation, lung tumor cell lines expressing wt or mutant DDR2; format: cell-based; conditions: unpubl. data
BRAF^V600E [4] = molecular target: T4, BRAF^V600E; experiment: Cellular kinase phosphorylation assay, RAT‐1/BRAF^V600E; format: cell-based; parameters: host or cells: RAT-1 rat fibroblasts; conditions: RAT‐1/BRAF^V600E cells; without serum; read-out: Mean ± SD IC50
[5] = human, male, plasma, arithmetic mean ± SD

T2 sequence (Q16539 whole entry): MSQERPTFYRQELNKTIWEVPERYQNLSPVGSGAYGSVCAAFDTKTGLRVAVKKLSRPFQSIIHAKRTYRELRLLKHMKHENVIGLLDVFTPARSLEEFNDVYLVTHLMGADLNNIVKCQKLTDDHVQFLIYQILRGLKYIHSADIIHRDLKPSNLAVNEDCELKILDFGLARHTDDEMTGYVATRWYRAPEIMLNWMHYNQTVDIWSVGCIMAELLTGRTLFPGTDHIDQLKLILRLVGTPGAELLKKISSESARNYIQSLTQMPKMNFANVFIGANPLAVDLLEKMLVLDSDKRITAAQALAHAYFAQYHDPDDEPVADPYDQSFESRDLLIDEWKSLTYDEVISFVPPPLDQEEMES
T3 sequence (Q9H2G2 whole entry): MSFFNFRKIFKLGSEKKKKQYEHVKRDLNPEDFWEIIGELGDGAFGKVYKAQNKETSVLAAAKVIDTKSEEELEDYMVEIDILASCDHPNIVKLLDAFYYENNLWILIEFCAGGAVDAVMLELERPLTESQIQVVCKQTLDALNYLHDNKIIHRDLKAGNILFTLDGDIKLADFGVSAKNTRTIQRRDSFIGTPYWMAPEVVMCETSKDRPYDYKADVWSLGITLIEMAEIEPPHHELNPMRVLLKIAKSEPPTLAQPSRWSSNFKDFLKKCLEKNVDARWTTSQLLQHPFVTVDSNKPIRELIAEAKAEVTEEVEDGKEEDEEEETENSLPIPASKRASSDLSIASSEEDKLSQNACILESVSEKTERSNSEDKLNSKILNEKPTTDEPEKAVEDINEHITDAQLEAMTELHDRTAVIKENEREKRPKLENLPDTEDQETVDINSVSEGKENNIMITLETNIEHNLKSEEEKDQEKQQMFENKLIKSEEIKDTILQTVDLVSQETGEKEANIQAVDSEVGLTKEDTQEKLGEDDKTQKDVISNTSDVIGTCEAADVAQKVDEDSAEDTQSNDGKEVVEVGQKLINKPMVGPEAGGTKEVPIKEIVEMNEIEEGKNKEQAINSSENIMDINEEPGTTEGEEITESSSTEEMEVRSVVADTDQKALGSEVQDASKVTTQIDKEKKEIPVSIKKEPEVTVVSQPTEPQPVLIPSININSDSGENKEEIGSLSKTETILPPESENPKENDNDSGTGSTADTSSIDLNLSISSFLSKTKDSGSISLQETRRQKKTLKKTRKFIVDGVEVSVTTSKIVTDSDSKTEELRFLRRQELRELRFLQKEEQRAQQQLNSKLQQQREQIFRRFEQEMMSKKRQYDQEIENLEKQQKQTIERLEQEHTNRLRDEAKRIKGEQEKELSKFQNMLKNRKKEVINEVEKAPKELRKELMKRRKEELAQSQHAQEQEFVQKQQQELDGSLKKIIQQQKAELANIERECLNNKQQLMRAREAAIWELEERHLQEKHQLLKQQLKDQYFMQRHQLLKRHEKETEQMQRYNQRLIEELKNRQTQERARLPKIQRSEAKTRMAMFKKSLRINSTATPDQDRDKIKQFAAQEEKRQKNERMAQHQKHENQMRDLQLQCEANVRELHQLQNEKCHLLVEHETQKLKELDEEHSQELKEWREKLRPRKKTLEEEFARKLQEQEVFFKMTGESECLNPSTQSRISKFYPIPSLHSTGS
T4 sequence (P15056 whole entry V600E): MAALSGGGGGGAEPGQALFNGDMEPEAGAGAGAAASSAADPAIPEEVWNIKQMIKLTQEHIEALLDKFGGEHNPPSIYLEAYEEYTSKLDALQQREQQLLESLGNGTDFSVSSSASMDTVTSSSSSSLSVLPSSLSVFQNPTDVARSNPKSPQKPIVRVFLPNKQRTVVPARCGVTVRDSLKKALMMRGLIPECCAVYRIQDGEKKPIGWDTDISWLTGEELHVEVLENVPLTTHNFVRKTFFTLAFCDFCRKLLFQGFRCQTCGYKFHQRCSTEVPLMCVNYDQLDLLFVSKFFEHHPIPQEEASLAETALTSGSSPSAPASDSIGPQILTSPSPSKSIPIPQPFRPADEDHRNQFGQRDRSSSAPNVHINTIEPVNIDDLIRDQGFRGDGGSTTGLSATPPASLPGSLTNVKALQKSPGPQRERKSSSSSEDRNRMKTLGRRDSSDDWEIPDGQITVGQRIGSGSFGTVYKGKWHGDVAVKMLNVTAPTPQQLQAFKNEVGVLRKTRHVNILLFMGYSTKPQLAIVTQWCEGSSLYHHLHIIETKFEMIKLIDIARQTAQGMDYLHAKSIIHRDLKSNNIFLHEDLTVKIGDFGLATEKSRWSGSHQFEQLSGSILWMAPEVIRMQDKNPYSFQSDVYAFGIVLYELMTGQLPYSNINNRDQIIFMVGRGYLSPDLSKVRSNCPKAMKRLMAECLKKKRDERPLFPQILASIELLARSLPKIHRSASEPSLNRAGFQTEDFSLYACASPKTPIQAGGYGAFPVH
T8 sequence (P16234 24-1089): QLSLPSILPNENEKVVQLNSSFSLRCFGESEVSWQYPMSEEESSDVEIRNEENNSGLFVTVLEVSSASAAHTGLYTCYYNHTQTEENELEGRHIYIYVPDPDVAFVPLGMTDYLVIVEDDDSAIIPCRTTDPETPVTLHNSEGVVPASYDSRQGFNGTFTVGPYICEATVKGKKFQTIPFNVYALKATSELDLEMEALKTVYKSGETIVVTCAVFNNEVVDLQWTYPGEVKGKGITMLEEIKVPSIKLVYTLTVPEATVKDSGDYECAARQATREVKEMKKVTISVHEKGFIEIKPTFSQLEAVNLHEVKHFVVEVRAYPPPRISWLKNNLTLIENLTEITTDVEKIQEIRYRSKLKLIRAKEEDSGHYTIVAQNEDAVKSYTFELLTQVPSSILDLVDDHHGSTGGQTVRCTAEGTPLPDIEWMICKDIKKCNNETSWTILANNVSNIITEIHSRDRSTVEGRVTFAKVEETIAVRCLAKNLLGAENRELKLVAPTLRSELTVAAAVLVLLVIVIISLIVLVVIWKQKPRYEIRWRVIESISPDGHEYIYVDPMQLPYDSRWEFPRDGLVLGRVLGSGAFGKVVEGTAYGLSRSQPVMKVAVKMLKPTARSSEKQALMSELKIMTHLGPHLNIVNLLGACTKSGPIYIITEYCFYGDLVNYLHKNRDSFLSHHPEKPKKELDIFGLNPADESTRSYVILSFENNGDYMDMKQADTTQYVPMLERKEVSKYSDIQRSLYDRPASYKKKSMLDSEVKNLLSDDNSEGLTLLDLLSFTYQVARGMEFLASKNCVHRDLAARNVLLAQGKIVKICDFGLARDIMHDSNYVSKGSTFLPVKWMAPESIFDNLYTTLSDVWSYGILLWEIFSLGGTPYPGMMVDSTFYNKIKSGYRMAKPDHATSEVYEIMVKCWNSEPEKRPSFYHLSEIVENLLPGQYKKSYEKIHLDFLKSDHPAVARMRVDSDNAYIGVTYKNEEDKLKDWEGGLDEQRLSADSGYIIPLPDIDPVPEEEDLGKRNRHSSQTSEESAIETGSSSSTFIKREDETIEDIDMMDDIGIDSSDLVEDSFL
Sequence of VEGFR2 (P35968 20-1356): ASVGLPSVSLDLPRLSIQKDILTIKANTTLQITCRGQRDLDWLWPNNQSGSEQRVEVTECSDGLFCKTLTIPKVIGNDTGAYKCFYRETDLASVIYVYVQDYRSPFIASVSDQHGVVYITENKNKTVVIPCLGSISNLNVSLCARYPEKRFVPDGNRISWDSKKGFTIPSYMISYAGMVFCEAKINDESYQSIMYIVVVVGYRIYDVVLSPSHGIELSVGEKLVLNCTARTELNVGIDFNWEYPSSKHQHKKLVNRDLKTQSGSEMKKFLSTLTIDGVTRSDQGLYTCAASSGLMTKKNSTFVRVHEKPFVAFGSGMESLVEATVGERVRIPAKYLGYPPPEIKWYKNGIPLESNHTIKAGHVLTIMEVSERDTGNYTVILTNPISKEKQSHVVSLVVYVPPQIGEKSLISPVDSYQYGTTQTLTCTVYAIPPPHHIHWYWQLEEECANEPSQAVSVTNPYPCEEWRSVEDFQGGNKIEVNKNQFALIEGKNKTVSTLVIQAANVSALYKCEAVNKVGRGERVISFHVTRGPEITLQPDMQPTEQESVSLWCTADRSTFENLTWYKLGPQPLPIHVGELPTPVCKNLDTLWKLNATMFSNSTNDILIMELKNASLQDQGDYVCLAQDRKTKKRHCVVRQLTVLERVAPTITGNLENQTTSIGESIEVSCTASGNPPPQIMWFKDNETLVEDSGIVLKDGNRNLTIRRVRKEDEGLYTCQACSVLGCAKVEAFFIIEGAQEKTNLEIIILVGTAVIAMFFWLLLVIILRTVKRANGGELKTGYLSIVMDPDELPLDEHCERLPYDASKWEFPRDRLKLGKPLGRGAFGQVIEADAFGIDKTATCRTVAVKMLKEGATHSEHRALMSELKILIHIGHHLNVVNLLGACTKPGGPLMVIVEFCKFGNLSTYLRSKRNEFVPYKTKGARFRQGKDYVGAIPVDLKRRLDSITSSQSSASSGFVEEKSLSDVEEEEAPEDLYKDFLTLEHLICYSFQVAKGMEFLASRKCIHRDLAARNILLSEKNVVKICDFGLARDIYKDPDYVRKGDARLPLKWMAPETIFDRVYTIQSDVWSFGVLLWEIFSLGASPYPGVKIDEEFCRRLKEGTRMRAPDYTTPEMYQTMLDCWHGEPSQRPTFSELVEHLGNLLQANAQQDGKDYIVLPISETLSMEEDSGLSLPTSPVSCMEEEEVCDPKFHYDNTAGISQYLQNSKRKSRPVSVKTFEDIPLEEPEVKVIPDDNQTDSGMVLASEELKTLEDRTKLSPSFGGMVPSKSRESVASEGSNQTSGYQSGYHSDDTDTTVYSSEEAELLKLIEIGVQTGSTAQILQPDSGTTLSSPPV

Structure (SMILES)	Kd (DDR2)	Kd (p38-alpha)	Kd (SLK)	Kd (BRAF^V600E [1])	Kd (FLT3^N841I)	Kd (KIT^D816V)	Kd (RET^M918T)	Kd (PDGFRs)	IC50 (PDGFRα)	IC50 (VEGFR3)	Inhibition of VEGFR2 activity, potency relative to regorafenib (VEGFR2)	Proportion of protein‐bound drug [2]	Unbound fraction, fold lower than that of regorafenib [2]	Major plasma protein to which the compound was bound [2]	Unbound fraction, fold lower in human than in murine plasma [2]	Unbound fraction (%) [2, 5]	Inhibition of proliferation [3]	IC50 (BRAF^V600E [4])	fraction unbound ([2]; male, human, plasma, arithmetic mean ± SD)
CNC(=O)c1cc(Oc2ccc(NC(=O)Nc3ccc(Cl)c(C(F)(F)F)c3)c(F)c2)cc[n+]1[O-] [M‐2]	0.0053 µM	0.017 µM	0.064 µM	0.015 µM	0.034 µM	0.3 µM	0.0074 µM	0.0073 to 0.011 µM	0.044 µM	~0.004 µM	higher potency than regorafenib	more than 99%	about 2.5 fold	albumin	~ 5 fold	0.188 ± 0.004%	only moderate inhibition	0.021 µM	
CNC(=O)c1cc(Oc2ccc(NC(=O)Nc3ccc(Cl)c(C(F)(F)F)c3)c(F)c2)ccn1 [Regorafenib, reference compound]	0.0092 µM and 0.0097 µM	0.058 µM and 0.048 µM	0.12 µM and 0.098 µM									more than 99%		albumin		0.488 ± 0.091%	only moderate inhibition		~0.005
NC(=O)c1cc(Oc2ccc(NC(=O)Nc3ccc(Cl)c(C(F)(F)F)c3)c(F)c2)cc[n+]1[O-] [M‐5]	0.0025 µM	0.048 µM	0.1 µM	0.011 µM	0.023 µM	0.31 µM	0.0058 µM	0.011 µM	0.061 µM	~0.016 µM	higher potency than regorafenib	more than 99%	approximately 10 fold	albumin	~ 8 fold	0.053 ± 0.013%	only moderate inhibition	0.027 µM	
